# From patent US9931351B2, “Method for improving leptin resistance” (Kyoto University, priority 2013, dated 2018)
# Tests used:
# Assay type in all cases: in vivo
# [1] = system: transgenic mice overexpressing leptin (LepTg) under the high fat diet condition; test: Test Example 1: effects to improve metabolism in transgenic mice overexpressing leptin under a high fat diet condition; details: 60% high fat diet, 50 mg/kg/day intraperitoneal once a day, four weeks; for weight of the adipose tissues: epididymal
# Description: Eight-week old male wild type mice and transgenic mice overexpressing leptin (LepTg) (Ogawa et al. Diabetes 48: 1822-1829, 1999, prepared in Department of Endocrinology and Metabolism, Kyoto University) were divided into three treatment groups, respectively: “standard diet (SD)+vehicle (V)”, “60% high fat diet (HFD)+vehicle”, and “60% high fat diet+Compound 57”. The mice were kept for four weeks with ad libitum feeding, and the body weight and the food intake of the mice were measured. The vehicle and Compound 57 were administered to the mice by intraperitoneal injection once a day. The dosage of Compound 57 was 50 mg/kg/day. After the four weeks the mice were sacrificed and blood, epididymal adipose tissues, and the liver were collected. The weight of the adipose tissues, the liver weight, the liver triglyceride levels, and the plasma levels of glucose, insulin, total cholesterol (T-chol), triglyceride (TG), and nonesterified fatty acid (NEFA) were measured (n=5 for each group). The equivalent dosage of Compound 32 was tested in a similar manner (n=5 for each group).
# [2] = system: leptin-deficient Lepmkyo/Lepmkyo rats; test: Test Example 6: effects to improve metabolism in leptin-deficient Lepmkyo/Lepmkyo rats; details: standard diet, 20 mg/kg/day intraperitoneal once a day, four weeks; for body weight: versus vehicle
# Description: Lepmkyo/Lepmkyo rats cannot produce leptin due to a mutation in the leptin gene (Aizawa-Abe et al. Physiol Genomics 45: 786-793, 2013, prepared in Institute of Laboratory Animals, Graduate School of Medicine, Kyoto University). Eight-week old male Lepmkyo/Lepmkyo rats were divided into three treatment groups: “Vehicle (V)”, “Compound 57”, and “Compound 32”. The rats were kept for four weeks with ad libitum feeding of standard diet, and the body weight of the rats were measured. The vehicle, Compound 57, and Compound 32 were administered to the rats by intraperitoneal injection once a day. The each dosage of Compounds 57 and 32 was 20 mg/kg/day. After the four weeks the rats were sacrificed, blood was collected, and the plasma levels of glucose and insulin were measured (n =5 for each group).
# [3] = system: transgenic mice overexpressing leptin (LepTg) having diet-induced obesity; test: Test Example 4: effects to improve metabolism in LepTg mice having diet-induced obesity caused by a high fat diet; details: LepTg mice obese after four-week high fat diet, continued high fat diet, 50 mg/kg/day intraperitoneal once a day, further four weeks; for weight of the adipose tissues: epididymal
# Description: Eight-week old male wild type mice and transgenic mice overexpressing leptin (LepTg) (see Test Example 1) were divided into two groups, respectively (n=4 and 12), and kept for four weeks under a standard diet (SD) or a high fat diet (HFD) condition. All the mice fed with the standard diet for the four weeks were assigned to the group “vehicle (V)” and fed with the standard diet for further four weeks, and then the body weight and the food intake of the mice were measured. The mice fed with the high fat diet for the four weeks were divided into three groups: “vehicle (V)”, “Compound 57”, and “Compound 32”, and fed with the high fat diet for further four weeks, and then the body weight and the food intake of the mice were measured. The vehicle, Compound 57, and Compound 32 were administered to the mice by intraperitoneal injection once a day. The each dosage of Compounds 57 and 32 was 50 mg/kg/day. Finally the mice were sacrificed and blood, epididymal adipose tissues, and the liver were collected. The weight of the adipose tissues, the liver weight, and the plasma levels of glucose and triglyceride were measured (n=4 for each group).
# [4] = system: wild type rats having diet-induced obesity; test: Test Example 8: effects to improve metabolism in rats having diet-induced obesity caused by a high fat diet; details: wild type rats obese after four-week high fat diet, continued high fat diet, 20 mg/kg/day intraperitoneal once a day, further four weeks; for weight of the adipose tissues: epididymal
# Description: Eight-week old male wild type rats were divided into two groups (n =5 and 15) and kept for four weeks under a standard diet (SD) or a high fat diet (HFD) condition. All the rats fed with the standard diet for the four weeks were assigned to the group “vehicle (V)” and fed with the standard diet for further four weeks, and then the body weight of the rats was measured. The rats fed with the high fat diet for the four weeks were divided into three groups: “vehicle”, “Compound 57”, and “Compound 32”, and fed with the high fat diet for further four weeks, and then the body weight of the rats was measured. The vehicle, Compound 57, and Compound 32 were administered to the rats by intraperitoneal injection once a day. The each dosage of Compounds 57 and 32 was 20 mg/kg/day. Finally the rats were sacrificed, blood, epididymal adipose tissues, and the liver were collected, and the weight of the adipose tissues, the liver weight, and the plasma levels of glucose, insulin, total cholesterol, triglyceride, and nonesterified fatty acid were measured (n =5 for each group).
# Seipin KO rats = test: Test Example 7: effects to improve metabolism in Seipin KO rats, a model of generalized lipodystrophy; details: standard diet, 20 mg/kg/day intraperitoneal once a day, four weeks
# Description: Seipin KO rats have a mutation in the Seipin gene, the causative gene of human generalized lipodystrophy, and are used as a model of generalized lipodystrophy. The rats have substantially no white adipocyte and thus cannot produce leptin. The rats were prepared in Department of Endocrinology and Metabolism, Kyoto University. Eight-week old male Seipin KO rats were divided into three treatment groups: “Vehicle (V)”, “Compound 57”, and “Compound 32”. The rats were kept for four weeks with ad libitum feeding of standard diet, and the body weight of the rats were measured. The vehicle, Compound 57, and Compound 32 were administered to the rats by intraperitoneal injection once a day. The each dosage of Compounds 57 and 32 was 20 mg/kg/day. After the four weeks the rats were sacrificed, blood was collected, and the plasma levels of glucose and insulin were measured (n=3 for each group).
Compound,body weight [1],food intake [1],liver triglyceride levels [1],liver weight [1],plasma insulin levels [1],plasma level of nonesterified fatty acid [1],plasma level of total cholesterol [1],plasma level of triglyceride [1],random plasma glucose levels [1],weight of the adipose tissues [1],plasma insulin [2],random plasma glucose levels [2],body weight [2],blood level of glucose [3],blood level of triglyceride [3],body weight [3],food intake [3],weight of the adipose tissues [3],body weight [4],plasma level of glucose [4],further results
"Cc1cc(F)ccc1-c1ccc(/N=N/c2cc(S(=O)(=O)[O-])c3ccccc3c2N)cn1.[Na+] [Compound 32, 4-amino-3-[6-(4-fluoro-2-methylphenyl)pyridine-3-ylazo]naphthalene-1-sulfonic acid sodium salt]",did not increase,did not increase,did not increase,did not increase,did not increase,did not increase,did not increase,did not increase,did not increase,did not increase,did not change,did not change,No difference,decreased,decreased,decreased,significantly decreased,significantly decreased,decreased,decreased,plasma level of insulin [4]: decreased; plasma level of nonesterified fatty acid [4]: decreased; plasma level of total cholesterol [4]: decreased; plasma level of triglyceride [4]: decreased; weight of the adipose tissues [4]: decreased; body weight (Seipin KO rats): did not change; plasma insulin (Seipin KO rats): did not change; random plasma glucose levels (Seipin KO rats): did not change
"Nc1c(/N=N/c2ccc(-c3cccc4c3sc3ccccc34)nc2)cc(S(=O)(=O)[O-])c2ccccc12.[Na+] [Compound 57, 4-amino-3-(6-dibenzothiophene-4-ylpyridine-3-ylazo)naphthalene-1-sulfonic acid sodium salt]",did not increase,did not increase,did not increase,did not increase,did not increase,did not increase,did not increase,did not increase,did not increase,did not increase,did not change,did not change,No difference,decreased,decreased,decreased,significantly decreased,significantly decreased,decreased,decreased,liver weight [3]: decreased; plasma level of insulin [4]: decreased; plasma level of nonesterified fatty acid [4]: decreased; plasma level of total cholesterol [4]: decreased; plasma level of triglyceride [4]: decreased; weight of the adipose tissues [4]: decreased; body weight (Seipin KO rats): did not change; plasma insulin (Seipin KO rats): did not change; random plasma glucose levels (Seipin KO rats): did not change
